In patent US9169254B2, “Spiroimidazolone derivative” (Chugai Seiyaku Kabushiki Kaisha, priority 2009, dated 2015):

molecular target: T1, human PTH1 receptor (Homo sapiens, UniProt Q03431); test: In vitro cAMP signal activity in HKRK-B7 cells (LLC-PK1 cells overexpressing the human PTH1 receptor); assay type: cell-based; conditions: HKRK-B7 cells; compound at 1×10^−3 M; cAMP produced as percentage of that produced by hPTH(1-34) at 100 nM
T1 sequence (Q03431 27-593): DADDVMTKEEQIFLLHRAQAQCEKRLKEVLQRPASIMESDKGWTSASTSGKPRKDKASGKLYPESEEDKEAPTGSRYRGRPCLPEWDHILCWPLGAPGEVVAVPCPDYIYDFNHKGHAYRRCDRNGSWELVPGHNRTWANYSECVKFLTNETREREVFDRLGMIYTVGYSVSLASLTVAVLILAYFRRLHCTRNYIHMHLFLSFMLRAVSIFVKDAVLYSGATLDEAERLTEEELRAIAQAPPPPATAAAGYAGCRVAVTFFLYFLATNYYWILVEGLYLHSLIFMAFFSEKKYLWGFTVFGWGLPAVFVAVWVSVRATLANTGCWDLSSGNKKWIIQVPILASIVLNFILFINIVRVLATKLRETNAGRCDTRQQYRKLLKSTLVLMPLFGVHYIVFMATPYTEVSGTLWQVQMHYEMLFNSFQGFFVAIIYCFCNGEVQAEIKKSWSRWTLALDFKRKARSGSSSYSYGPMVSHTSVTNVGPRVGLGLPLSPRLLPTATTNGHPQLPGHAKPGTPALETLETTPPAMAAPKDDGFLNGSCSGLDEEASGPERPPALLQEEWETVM

Row | SMILES | cAMP production activity (%)
1 | Cc1cc(C(=O)N2CCN(C(N)=O)CC2)cc(C)c1/C=C/S(=O)(=O)N1CCC2(CC1)N=C(c1cccc(OC(F)(F)F)c1)NC2=O [Compound 396, 4-(3,5-dimethyl-4-{(E)-2-[4-oxo-2-(3-trifluoromethoxy-phenyl)-1,3,8-triaza-spiro[4.5]dec-1-ene-8-sulfonyl]-vinyl}-benzoyl)-piperazine-1-carboxylic acid amide] | 85%
2 | Cc1cc(S(=O)(=O)Nc2ccncc2)ccc1/C=C/S(=O)(=O)N1CCC2(CC1)N=C(c1cccc(OC(F)(F)F)c1)NC2=O [Compound 530, 3-methyl-4-{(E)-2-[4-oxo-2-(3-trifluoromethoxy-phenyl)-1,3,8-triaza-spiro[4.5]dec-1-ene-8-sulfonyl]-vinyl}-N-pyridin-4-yl-benzenesulfonamide] | 18%
3 | CC(=O)OC[C@H](CN(C(C)=O)c1ccc(CCS(=O)(=O)N2CCC3(CC2)N=C(c2ccc(F)c(C(F)(F)F)c2)NC3=O)c(C)c1)OC(C)=O [Compound 153, acetic acid (S)-1-acetoxymethyl-2-[acetyl-(4-{2-[2-(4-fluoro-3-trifluoromethyl-phenyl)-4-oxo-1,3,8-triaza-spiro[4.5]dec-1-ene-8-sulfonyl]-ethyl}-3-methyl-phenyl)-amino]-ethyl ester] | 59%
4 | Cc1cc(N(C)C(N)=O)cc(C)c1CCS(=O)(=O)N1CCC2(CC1)N=C(C1C[C@H]3CC[C@@H](C1)C3)NC2=O (stereo partly drawn) [Compound 1054, 1-{4-[2-((1R,5S)-2-bicyclo[3.2.1]oct-3-yl-4-oxo-1,3,8-triaza-spiro[4.5]dec-1-ene-8-sulfonyl)-ethyl]-3,5-dimethyl-phenyl}-1-methyl-urea] | 80%
5 | Cc1cc(N(C)C(N)=O)cc(C)c1/C=C/S(=O)(=O)N1CCC2(CC1)N=C(c1cccc(OCCCC(F)(F)F)c1)NC2=O [Compound 1019, 1-[3,5-dimethyl-4-((E)-2-{4-oxo-2-[3-(4,4,4-trifluoro-butoxy)-phenyl]-1,3,8-triaza-spiro[4.5]dec-1-ene-8-sulfonyl}-vinyl)-phenyl]-1-methyl-urea] | 72%
6 | Cc1c(CCS(=O)(=O)N2CCC3(CC2)N=C(c2cccc(OC(F)(F)F)c2)NC3=O)cccc1OCCC(O)CO (stereo not drawn) [Compound 266, 8-{2-[3-(3,4-dihydroxy-butoxy)-2-methyl-phenyl]-ethanesulfonyl}-2-(3-trifluoromethoxy-phenyl)-1,3,8-triaza-spiro[4.5]dec-1-en-4-one] | 81%
7 | Cc1cc(C(=O)N2CCN(C)CC2)ccc1CCS(=O)(=O)N1CCC2(CC1)N=C(c1cccc(OC(F)(F)F)c1)NC2=O [Compound 843, 8-{2-[2-methyl-4-(4-methyl-piperazine-1-carbonyl)-phenyl]-ethanesulfonyl}-2-(3-trifluoromethoxy-phenyl)-1,3,8-triaza-spiro[4.5]dec-1-en-4-one] | 77%
8 | Cc1cc(OC[C@H](O)CO)cc(C)c1/C=C/S(=O)(=O)N1CCC2(CC1)N=C(C1CCCCC1)NC2=O [Compound 206, 2-cyclohexyl-8-{(E)-2-[4-((R)-2,3-dihydroxy-propoxy)-2,6-dimethyl-phenyl]-ethenesulfonyl}-1,3,8-triaza-spiro[4.5]dec-1-en-4-one] | 70%
9 | Cc1cc2[nH]c(=O)[nH]c(=O)c2c(C)c1CCS(=O)(=O)N1CCC2(CC1)N=C(C1CCC(C)CC1)NC2=O (stereo not drawn) [Compound 685, 5,7-Dimethyl-6-{2-[2-(4-methyl-cyclohexyl)-4-oxo-1,3,8-triaza-spiro[4.5]dec-1-ene-8-sulfonyl]-ethyl}-1H-quinazoline-2,4-dione] | 46%
10 | Cc1cc(C(=O)N2CCN(C(=O)CCCN(C)C)CC2)cc(C)c1/C=C/S(=O)(=O)N1CCC2(CC1)N=C(c1cccc(OC(F)(F)F)c1)NC2=O [Compound 449, 8-((E)-2-{4-[4-(4-dimethylamino-butyryl)-piperazine-1-carbonyl]-2,6-dimethyl-phenyl}-ethenesulfonyl)-2-(3-trifluoromethoxy-phenyl)-1,3,8-triaza-spiro[4.5]dec-1-en-4-one] | 94%
11 | CCC1CCC(C2=NC3(CCN(S(=O)(=O)CCc4ccc(C(=O)N(C)C)cc4C)CC3)C(=O)N2)CC1 (stereo not drawn) [Compound 896, 4-{2-[2-(4-ethyl-cyclohexyl)-4-oxo-1,3,8-triaza-spiro[4.5]dec-1-ene-8-sulfonyl]-ethyl}-3,N,N-trimethyl-benzamide] | 83%
12 | Cc1cc(CNC(=O)OC(C)(C)C)ccc1CCS(=O)(=O)N1CCC2(CC1)N=C(C(C)(C)C)NC2=O [Compound 162, {4-[2-(2-tert-Butyl-4-oxo-1,3,8-triaza-spiro[4.5]dec-1-ene-8-sulfonyl)-ethyl]-3-methyl-benzyl}-carbamic acid tert-butyl ester] | 43%
13 | Cc1cc(C(=O)N2CCC(C)(O)CC2)cc(C)c1/C=C/S(=O)(=O)N1CCC2(CC1)N=C(c1ccc(OCC(F)(F)F)c(Cl)c1)NC2=O [Compound 1216, 2-[3-chloro-4-(2,2,2-trifluoro-ethoxy)-phenyl]-8-{(E)-2-[4-(4-hydroxy-4-methyl-piperidine-1-carbonyl)-2,6-dimethyl-phenyl]-ethenesulfonyl}-1,3,8-triaza-spiro[4.5]dec-1-en-4-one] | 61%
14 | Cc1cc(N(CCO)C(=O)N(C)CCO)cc(C)c1/C=C/S(=O)(=O)N1CCC2(CC1)N=C(c1cccc(OC(F)(F)F)c1)NC2=O [Compound 533, 1-(3,5-dimethyl-4-{(E)-2-[4-oxo-2-(3-trifluoromethoxy-phenyl)-1,3,8-triaza-spiro[4.5]dec-1-ene-8-sulfonyl]-vinyl}-phenyl)-1,3-bis-(2-hydroxy-ethyl)-3-methyl-urea] | 69%
15 | Cc1cc(N2C(=O)N(C)C(C)(C)C2=O)cc(C)c1/C=C/S(=O)(=O)N1CCC2(CC1)N=C(C1CCC(C)CC1)NC2=O (stereo not drawn) [Compound 508, 3-(3,5-dimethyl-4-{(E)-2-[2-(4-methyl-cyclohexyl)-4-oxo-1,3,8-triaza-spiro[4.5]dec-1-ene-8-sulfonyl]-vinyl}-phenyl)-1,5,5-trimethyl-imidazolidine-2,4-dione] | 24%
16 | Cc1cc(N(C)C(N)=O)cc(C)c1/C=C/S(=O)(=O)N1CCC2(CC1)N=C(CCCCCCCCC1(C)COC1)NC2=O [Compound 1023, 1-[3,5-Dimethyl-4-((E)-2-{2-[8-(3-methyl-oxetan-3-yl)-octyl]-4-oxo-1,3,8-triaza-spiro[4.5]dec-1-ene-8-sulfonyl}-vinyl)-phenyl]-1-methyl-urea] | 92%
17 | Cc1cc(C(=O)N(C)C)ccc1CCS(=O)(=O)N1CCC2(CC1)N=C(c1cccc(Cl)c1)NC2=O [Compound 81, 4-{2-[2-(3-chloro-phenyl)-4-oxo-1,3,8-triaza-spiro[4.5]dec-1-ene-8-sulfonyl]-ethyl}-3,N,N-trimethyl-benzamide] | 57%
18 | Cc1ccc(C(=O)N2CCN(C)CC2)cc1CCS(=O)(=O)N1CCC2(CC1)N=C(c1cccc(OC(F)(F)F)c1)NC2=O [Compound 414, 8-{2-[2-methyl-5-(4-methyl-piperazine-1-carbonyl)-phenyl]-ethanesulfonyl}-2-(3-trifluoromethoxy-phenyl)-1,3,8-triaza-spiro[4.5]dec-1-en-4-one] | 69%
19 | Cc1cc(S(=O)(=O)NC2CCC(O)CC2)ccc1/C=C/S(=O)(=O)N1CCC2(CC1)N=C(c1cccc(C(F)(F)F)c1)NC2=O (stereo not drawn) [Compound 592, N-(4-hydroxy-cyclohexyl)-3-methyl-4-{(E)-2-[4-oxo-2-(3-trifluoromethyl-phenyl)-1,3,8-triaza-spiro[4.5]dec-1-ene-8-sulfonyl]-vinyl}-benzenesulfonamide] | 87%
20 | O=C1NC(C2CCCN(S(=O)(=O)CCc3cccc4ccccc34)C2)=NC12CCN(S(=O)(=O)CCc1cccc3ccccc13)CC2 (stereo not drawn) [Compound 39, 8-(2-Naphthalen-1-yl-ethanesulfonyl)-2-[1-(2-naphthalen-1-yl-ethanesulfonyl)-piperidin-3-yl]-1,3,8-triaza-spiro[4.5]dec-1-en-4-one] | 25%
21 | Cc1cc(N2CCNCC2=O)ccc1/C=C/S(=O)(=O)N1CCC2(CC1)N=C(C1CCC(C)CC1)NC2=O (stereo not drawn) [Compound 1285, 2-(4-methyl-cyclohexyl)-8-{(E)-2-[2-methyl-4-(2-oxo-piperazin-1-yl)-phenyl]-ethenesulfonyl}-1,3,8-triaza-spiro[4.5]dec-1-en-4-one] | 67%
22 | Cc1cc(C(=O)N(C)C)ccc1CCS(=O)(=O)N1CCC2(CC1)N=C(c1ccc3ncsc3c1)NC2=O [Compound 143, 4-[2-(2-benzothiazol-6-yl-4-oxo-1,3,8-triaza-spiro[4.5]dec-1-ene-8-sulfonyl)-ethyl]-3,N,N-trimethyl-benzamide] | 4.5%
23 | O=C1NC([C@@H]2C[C@H]3CC[C@@H]2C3)=NC12CCN(S(=O)(=O)c1cccc(Cl)c1)CC2 [Compound 23, 2-(1R,2R,4S)-bicyclo[2.2.1]hept-2-yl-8-(3-chloro-benzenesulfonyl)-1,3,8-triaza-spiro[4.5]dec-1-en-4-one] | 41%

same assay, conditions: HKRK-B7 cells; compound at 1×10^−3 M; cAMP produced as percentage of that produced by hPTH(1-34) at 100 nM; 0.1 µM

Row | SMILES | cAMP production activity (%)
24 | Cc1cc2ccc1CCS(=O)(=O)N1CCC3(CC1)N=C(NC3=O)c1cc(cc(C(F)(F)F)c1)OCCC=CCCCCN(C)C2=O [Compound 1411] | 38%
